Source: US20240216325A1, “NUCLEAR FACTOR KAPPA B PATHWAY INHIBITION TO ARREST CALCIFIC AORTIC STENOSIS” (CORNELL UNIVERSITY, priority 2019, published 2024)

What was measured:
[1] = system: LDLR−/− mice, a CAVD mouse model; assay: Echocardiography (pulsed-wave Doppler) of heart valve function in CAVD mouse model; type: in vivo
Description: Animals. Mouse experiments were performed according to the guidelines of the National Institute of Health and the protocols approved by the Institutional Animal Care and Use Committee of Cornell University. The mice used were LDLR (low-density lipoprotein receptor)-/- mice from Jackson Labs (No. 2270). Mice were fed a high-fat diet (Harlan Teklad No. TD88137, 42% of calories from fat, 0.25% cholesterol). Age-matched C57BL6J mice were obtained from Jackson Laboratories (Bar Harbour, ME) for control study. Drug administration. The NFκB pathway was intervened by administering either BAY11-7082 (injected intraperitoneal 3 times per week at 5 mg/kg) or tetrahydrobiopterin (BH4) (oral gavage at 10 mg/kg/day) to LDLR/mice, for 8 weeks after giving them high fat diet for 20 weeks Echocardiography. Transthoracic echocardiography was performed under 2% isofluorane anaesthesia, with M[…] and MS5[…] probes connected to a Vevo 2100 system (VisualSonics). Heart valve function was assessed at 6 months and 8 months of age using according to established procedures. Mice were anesthetized using inhaled 2% isoflurane. Abdominal hair was removed using a chemical depilatory cream, and warmed ultrasound transmission gel was applied to the anterior thorax. Probes were applied in the long-axis and short-axis position to the chest. Transvalvular velocity and pressure gradients were captured using the pulsed-wave Doppler mode and manual tracing of >3 velocity time intervals on the resulting plots. In this work, the NFkB pathway was intervened by administering either BAY11-7082 (injected intraperitoneal 3 times per week at 5 mg/kg) or tetrahydrobiopterin (BH4) (oral gavage at 10 mg/kg/day) to LDLR^-/- mice, a CAVD mouse model, for another 8 weeks after starting them on high fat diet for 20 weeks (FIGS. 17A-17C). Cardiac hemodynamic parameters, such as aortic valve peak velocity and left ventricle ejection fraction, were measured using doppler ultrasound before and after BAYT 1-7082 and BH4 administration. […]

[2] = system: NFκB canonical signaling activity; conditions: acute cardiovascular injury, literature; cited from earlier work
[3] = system: LDLR−/− mice, a CAVD mouse model; assay: Alizarin red staining for calcium contents on the aortic valves; type: in vivo; conditions: 8 weeks treatment after 20 weeks high fat diet
Description: Animals. Mouse experiments were performed according to the guidelines of the National Institute of Health and the protocols approved by the Institutional Animal Care and Use Committee of Cornell University. The mice used were LDLR (low-density lipoprotein receptor)−/− mice from Jackson Labs (No. 2270). Mice were fed a high-fat diet (Harlan Teklad No. TD88137, 42% of calories from fat, 0.25% cholesterol). Age-matched C57BL6J mice were obtained from Jackson Laboratories (Bar Harbour, ME) for control study. Drug administration. The NFκB pathway was intervened by administering either BAY11-7082 (injected intraperitoneal 3 times per week at 5 mg/kg) or tetrahydrobiopterin (BH4) (oral gavage at 10 mg/kg/day) to LDLR/mice, for 8 weeks after giving them high fat diet for 20 weeks Tissue staining and immunohistochemistry. Mouse hearts were isolated, perfused, fixed, embedded in paraffin, sectioned, and mounted. Alizarin red staining (ARS). Sections were deparaffinized and incubated in ARS stain for 5 minutes (1% Alizarin red in water, pH 4.2 adjusted by using 10% ammonium hydroxide in water). Sections were incubated in acetone for 30 seconds and then rinsed with a 1:1 solution of acetone and xylene. […] Cardiac hemodynamic parameters, such as aortic valve peak velocity and left ventricle ejection fraction, were measured using doppler ultrasound before and after BAYT 1-7082 and BH4 administration. […]

[4] = system: LDLR−/− mice, a CAVD mouse model; assay: Fibro-osteogenic gene profiling (Q-PCR) on aortic valve tissues; type: in vivo; conditions: 8 weeks treatment after 20 weeks high fat diet
Description: Animals. Mouse experiments were performed according to the guidelines of the National Institute of Health and the protocols approved by the Institutional Animal Care and Use Committee of Cornell University. The mice used were LDLR (low-density lipoprotein receptor)−/− mice from Jackson Labs (No. 2270). Mice were fed a high-fat diet (Harlan Teklad No. TD88137, 42% of calories from fat, 0.25% cholesterol). Age-matched C57BL6J mice were obtained from Jackson Laboratories (Bar Harbour, ME) for control study. Drug administration. The NFκB pathway was intervened by administering either BAY11-7082 (injected intraperitoneal 3 times per week at 5 mg/kg) or tetrahydrobiopterin (BH4) (oral gavage at 10 mg/kg/day) to LDLR/mice, for 8 weeks after giving them high fat diet for 20 weeks Q-PCR analysis. Mouse Aortic valve samples were homogenized, total RNA was isolated using Takarabio RNA, purified and further quantified via Nanodrop. […] Quantitative RT-PCR was performed on all samples using SYBR Green PCR master mix (Applied Biosystems, Foster City, CA) and a CFX96 or MiniOpticon Real-Time PCR Detection System (Bio-Rad, Hercules, CA). […] Cardiac hemodynamic parameters, such as aortic valve peak velocity and left ventricle ejection fraction, were measured using doppler ultrasound before and after BAYT 1-7082 and BH4 administration. […]

[5] = system: valve endothelial cells (VEC); assay: EndMT in VEC: VE-cadherin, αSMA, SNAI1 by RT-PCR and immunofluorescence; type: cell-based, porcine; conditions: GM+TNFα 30 ng/mL, 48 h
Description: Scale bar is 20 μm. […] Scale bar is […]. […] Arrows indicate cells coexpressing CD31 and αSMA. Scale bar is 100 μm. […] Asterisks indicate β-gal-positive cells in interstitial space. Scale bar is […]. CTL indicates control; GM, basal growth medium; and LDLR, low-density lipoprotein receptor.
3D Hydrogel Culture Model Preparation. Cellularized type II collagen hydrogels were prepared as previously described (Butcher et al., “Valvular Endothelial Cells Regulate the Phenotype of Interstitial Cells in Co-Culture: Effects of Steady Shear Stress,” Tissue Eng. 12:905-915 (2006), which is hereby incorporated by reference in its entirety)). Briefly, porcine aortic valve endothelial cells were topically seeded at 50,000 cell/cm^2 density, whereas porcine aortic valve interstitial cells were encapsulated within the neutralized collagen gel suspension (2 mg/mL) at 1,000,000 cells/mL density. Constructs were allowed to gel for 1 hour at 37° C., 5% CO2, and then cultured overnight in their respective basal-medium conditions. For osteogenic differentiation conditions, basal-medium was supplemented with 10 mmol/L β-glycerophosphate, 50 μg/mL 1-ascorbic acid, and 100 nM dexamethasone, as previously described (Richards et al., “Side-Specific Endothelial-Dependent Regulation of Aortic Valve Calcification: Interplay of Hemodynamics and Nitric Oxide Signaling,” Am J Pathol. 182:1922-1931 (2013), which is hereby incorporated by reference in its entirety). For exogenous TNFα administration, recombinant human TNFα was added to appropriate media condition before administration at 30 ng/mL.
Quantitative Real-Time Polymerase Chain Reaction. Total RNA was extracted using a RNeasy total RNA purification kit (Qiagen, Valencia, CA), and RNA was reverse transcribed to cDNA using the iScript cDNA synthesis kit (Bio-Rad, Hercules, CA). Quantitative RT-PCR was performed on all samples using SYBR Green PCR master mix (Applied Biosystems, Foster City, CA) and a CFX96 or MiniOpticon Real-Time PCR Detection System (Bio-Rad, Hercules, CA). Samples amplifying at >37 cycles were considered nondetectable.
For in vitro cultures, intact collagen gels were rinsed twice in PBS and fixed in 4% paraformaldehyde for 1 hour at 25° C. Samples were rinsed 3× on a rocker with PBS for 15 minutes each, permeabilized with 0.2% Triton-X (VWR International, West Chester, PA) for 10 minutes on rocker, and blocked in 10% goat serum for 1 hour at 25° C.

[6] = system: NFκB p65; assay: p65 nuclear localization in VEC on 3D hydrogels (immunofluorescence); type: cell-based, porcine; conditions: 48 hour, OGM alone insufficient
Description: White arrows indicate cells with nuclear-positive signal. Scale bar is 20 μm. […] Asterisks indicate statistically significant groups (*: p<0.05).
3D Hydrogel Culture Model Preparation. Cellularized type II collagen hydrogels were prepared as previously described (Butcher et al., “Valvular Endothelial Cells Regulate the Phenotype of Interstitial Cells in Co-Culture: Effects of Steady Shear Stress,” Tissue Eng. 12:905-915 (2006), which is hereby incorporated by reference in its entirety)). Briefly, porcine aortic valve endothelial cells were topically seeded at 50,000 cell/cm^2 density, whereas porcine aortic valve interstitial cells were encapsulated within the neutralized collagen gel suspension (2 mg/mL) at 1,000,000 cells/mL density. Constructs were allowed to gel for 1 hour at 37° C., 5% CO2, and then cultured overnight in their respective basal-medium conditions. For osteogenic differentiation conditions, basal-medium was supplemented with 10 mmol/L β-glycerophosphate, 50 μg/mL 1-ascorbic acid, and 100 nM dexamethasone, as previously described (Richards et al., “Side-Specific Endothelial-Dependent Regulation of Aortic Valve Calcification: Interplay of Hemodynamics and Nitric Oxide Signaling,” Am J Pathol. 182:1922-1931 (2013), which is hereby incorporated by reference in its entirety). […]

[7] = system: Porcine aortic VEC; assay: VEC on 3D collagen hydrogels, calcification by Alizarin Red S staining and dye extraction; type: cell-based; conditions: OGM+TNFα 30 ng/mL, 14 days
Excerpt: Primary Aortic Valve Cell Isolation and Culture. Porcine valves are a widely used analog for human adult valve endothelial and interstitial cells. Unlike mice, pigs develop atherosclerosis and valvular lesions without intervention, similar to humans. Large-scale culture of porcine valve cell populations is feasible due to ample tissue size/cell dissociation yields. […] Only VEC cultures with consistent CD31 and VE-cadherin (vascular endothelial cadherin) expression, cobblestone morphology, and nondetectable αSMA (alphasmooth muscle actin) expression were used. αSMA levels were measured via RT-PCR (>37 cycle threshold), Western blot, and immunofluorescence.
All reagents were obtained from Sigma Aldrich, St. Louis, MO, unless otherwise noted. […]
Hydrogel Calcification Analysis. To quantify calcified matrix developed in different experimental conditions, an Alizarin Red absorbance assay was implemented. […] The concentration of dye in solution was then quantified using absorbance spectroscopy at 405-nm wavelength. Samples absorbance readings were normalized to basal growth medium culture condition.

[8] = molecular target: T1, RANKL (Mus musculus, UniProt O35235); conditions: literature (Weiss et al. 2013); cited from earlier work
T1 construct: host or cells: hypercholesterolemic mice (in vivo, endogenous protein)
T1 sequence (O35235 1-316): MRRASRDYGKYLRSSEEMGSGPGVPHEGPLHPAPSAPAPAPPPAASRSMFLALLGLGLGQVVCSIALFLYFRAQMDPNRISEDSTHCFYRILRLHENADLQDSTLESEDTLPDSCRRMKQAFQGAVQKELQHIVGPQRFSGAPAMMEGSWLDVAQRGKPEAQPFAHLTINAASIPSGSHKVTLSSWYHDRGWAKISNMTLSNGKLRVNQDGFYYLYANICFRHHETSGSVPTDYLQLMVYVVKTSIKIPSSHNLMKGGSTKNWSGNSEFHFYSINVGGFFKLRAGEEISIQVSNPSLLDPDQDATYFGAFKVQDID

[9] = LDLR−/− mice on high fat diet, treatment from 6 months, read at 8 months, vs control LDLR−/− given 10% DMSO/PBS

## Cc1ccc(S(=O)(=O)/C=C/C#N)cc1 [BAY11-7082]
[1]; [9]
  aortic valve peak velocity: lessened increase
  ejection fraction velocity ratio (EFVR): lessened
[1]; female vs male LDLR−/− mice, 8 weeks treatment
  hemodynamic effect by sex: significantly affected both female and male mice
[2]
  treatment of septic shock or ischemic reperfusion injury: effective
[3]
  calcium deposition on the aortic valves (Alizarin red staining): less calcium deposition
[4]
  collagen type 1A (Col1A) mRNA expression in aortic valve tissue: significantly decreased
  intercellular adhesion molecule 1 (ICAM1) mRNA expression in aortic valve tissue: significantly decreased

## TNFα
[5]
  EndMT induction: induced EndMT
  SNAI1 gene expression: significantly increased
  VE-cadherin gene expression (CDH5): reduction in gene expression
  αSMA expression: increased
[6]
  p65 nuclear localization: required to induce p65 nuclear localization
[7]
  calcium deposition (ARS): significantly increased

## osteoprotegerin: decoy receptor for RANKL
[8]
  CAVD calcification: mitigates CAVD calcification
